According to patent US20220125760A1, “USE OF USP7 INHIBITORS FOR THE TREATMENT OF ACUTE MYELOID LEUKEMIA (AML)” (INSERM (Institut National de la Santé et de la Recherche …, priority 2019, published 2022):

How the values were obtained:
primary AML cells = assay: Colony formation of primary AML blast cells in methylcellulose-based semi-solid medium; format: cell-based, Human; details: for colony formation, effect on cytarabine sensitivity: 10 nM cytarabine + 5 μM P22077, 7 days
Experimental: (§1) B: HL-60 cells were treated as indicated for 24 h. […] Statistical analysis was performed by unpaired t-test (n=4). *P≤0.05 and **P≤0.01. […] Colony formation was assessed after 7 days and represented as the ratio of the number of clones between untreated and treated conditions. For statistical analyses, unpaired Wilcoxon test was used. *P≤0.05, and ns=not significant.
(§2) To explore the possibility that USP7 by modulating CHK1 stability USP7 participates in the chemoresistance of leukemic cells, we examined the capacity of USP7 inhibition to sensitize HL60 and OCI-AML3 cells to cytarabine treatment. […] We then quantified the capacity of primary AML cells to form colonies in methylcellulose-based semi-solid medium, when exposed to clinical relevant concentrations (10 nM) of cytarabine combined with the P22077 inhibitor (FIG. 5D-5E).

CHK1 and USP7 = biological target: T1, CHK1 and USP7 (Homo sapiens, UniProt Q93009); assay: Proximity Ligation Assay (PLA) of CHK1 and USP7 in HL-60 cells; format: cell-based; details: HL60 cells, drug treatment, untreated (NT) 1.07+/−0.07
T1 construct: endogenous in cells; host or cells: HL-60 cells
Experimental: as §1

AML primary samples = assay: Cell viability of AML primary samples, annexinV/cell viability staining by flow cytometry; details: three primary AML samples, 10 μM P22077 for 24 h
[1] = system: OCI-AML3 cells engrafted in NSG mice; assay: OCI-AML3 xenograft in NSG mice, overall survival; details: NSG mice engrafted with OCI-AML3, 30 mg/kg/day IP for 5 days, vs vehicle, p=0.0001
Experimental: For statistical analysis, Mantel-Cox test was used. ***P≤0.001.
NOD/LtSz-SCID/IL-2Ry chain null (NSG) mice were bred at the UMS006 in Toulouse (France) using breeders obtained from Charles River. […] NSG mice were treated by i.p. injection of busulfan (20 mg/kg) on the day before the experiment. Mice were engrafted by injection of 2.10^6 OCI-AML3 cells into the tail vein. […] Mice were treated by daily intraperitoneal (IP) injection with AraC, P22077 or vehicle for 5 days. Overall mouse survival was established under these conditions.
OCI-AML3 resistant cells were injected into the tail vein of immunodeficient NSG mice to establish AML disease.

OCI-AML3 cells = assay: Cell death of OCI-AML3 cells, combination with cytarabine, annexinV flow cytometry; format: cell-based, Human; details: P22077 10 μM + AraC 1 μM, 24 h
Experimental: as §1, §2

[2] = system: CHK1 protein level in OCI-AML3 cell line; assay: CHK1 protein level by western blot in OCI-AML3 cells; format: cell-based, Human; details: OCI-AML3 cells (wild-type p53), P22077 10 μM
Experimental: (§3) FIG. 2: USP7 inhibition decreases CHK1 protein level. […] Actin was used as loading control. Normalization was performed using CTL siRNA condition as reference. […] B: HL-60 cells were treated with USP7 inhibitor (P22077) at 10 and harvested at the indicated times, followed by western blotting for CHK1. […] The amount of CHK1 at t=0 h was set to 1. […] C: OCI-AML3 cells were treated with USP7 inhibitor (P22077) at 10 μM and harvested at the indicated times, followed by western blotting for CHK1 protein. Graph represent the quantification of CHK1 protein levels normalized to actin loading control from 3 independent experiments. Statistical analyses were performed as in B.
We then investigated whether USP7 could regulate CHK1 levels in leukemic cells. […] . We then asked whether p53 status could affect this response and reproduced these experiments on two AML cell lines, OCI-AML3 and HEL, which express wild-type p53 and high CHK1 protein levels (FIG. 1A and data not shown). […] . Using an immunofluorescence approach, we also validated that approximately 50% of CHK1 protein signal disappears after 24 hours of USP7 inhibition (data not shown).

CHK1 protein signal = assay: Immunofluorescence of CHK1 protein signal; format: cell-based; details: after 24 hours of USP7 inhibition, data not shown
Text: (§4) We then investigated whether USP7 could regulate CHK1 levels in leukemic cells. […] We then used P22077, an inhibitor of USP7 catalytic activity^34,35, to further monitor the impact of USP7 inhibition on CHK1 levels. […] We then asked whether p53 status could affect this response and reproduced these experiments on two AML cell lines, OCI-AML3 and HEL, which express wild-type p53 and high CHK1 protein levels (FIG. 1A and data not shown). […] Using an immunofluorescence approach, we also validated that approximately 50% of CHK1 protein signal disappears after 24 hours of USP7 inhibition (data not shown).
We then investigated whether USP7 can regulate CHK1 protein level or its subcellular localization in leukemic cells. […] Using immunofluorescence, we also validated that approximately 50% of the CHK1 protein signal disappears after 24 hours of USP7 inhibition, without any changes in CHK1 subcellular localization (data not shown).

[3] = system: Peripheral Blood Mononuclear Cells (PBMC); assay: Cell viability of PBMC, annexinV/cell viability staining by flow cytometry; details: normal PBMC (n=3), 10 μM P22077 for 24 h
[4] = system: CHK1 half-life in HL60 cells; assay: CHK1 half-life with cycloheximide in HL60 cells; format: cell-based, Human
Experimental: To complete, experiments were performed to test whether the half-life of CHK1 is regulated by USP7 in leukemic cells. To this end, HL60 cells were treated with P22077 and the half-life of CHK1 was measured in the presence of 50 μg/mL cycloheximide (CHX) to inhibit protein biogenesis.

[5] = system: CHK1 ubiquitination in HL60 cells; assay: CHK1 immunoprecipitation and ubiquitin immunoblot in HL60 cells with MG132; format: cell-based, Human; details: in presence of proteasome inhibitor MG132, vs control condition
Experimental: To confirm that USP7 can regulates CHK1 protein level, endogenous CHK1 was immunoprecipitated from HL60 cells treated or not with P22077, in presence of the proteasome inhibitor MG132 to stabilize ubiquitinated forms of the protein. Immunoblotting of these fractions was performed and probed with an antibody against ubiquitin.

[6] = system: CHK1 protein levels in HL-60 cells; assay: CHK1 protein level by western blot in HL-60 cells; format: cell-based, Human; details: HL-60 cells (p53 null), P22077 at 10, visible from 8 h to 24 h of treatment
Experimental: as §3, §4

HL-60 cells = assay: Cell death of HL-60 cells, combination with cytarabine, annexinV flow cytometry; format: cell-based, Human; details: HL60 cells, 24 h
Experimental: as §1, §2

[7] = system: CHK1 protein levels in HEL cells; assay: CHK1 and p53 protein levels in HEL cells; format: cell-based, Human; details: data not shown
Text: as §4

T1 sequence (Q93009 whole entry): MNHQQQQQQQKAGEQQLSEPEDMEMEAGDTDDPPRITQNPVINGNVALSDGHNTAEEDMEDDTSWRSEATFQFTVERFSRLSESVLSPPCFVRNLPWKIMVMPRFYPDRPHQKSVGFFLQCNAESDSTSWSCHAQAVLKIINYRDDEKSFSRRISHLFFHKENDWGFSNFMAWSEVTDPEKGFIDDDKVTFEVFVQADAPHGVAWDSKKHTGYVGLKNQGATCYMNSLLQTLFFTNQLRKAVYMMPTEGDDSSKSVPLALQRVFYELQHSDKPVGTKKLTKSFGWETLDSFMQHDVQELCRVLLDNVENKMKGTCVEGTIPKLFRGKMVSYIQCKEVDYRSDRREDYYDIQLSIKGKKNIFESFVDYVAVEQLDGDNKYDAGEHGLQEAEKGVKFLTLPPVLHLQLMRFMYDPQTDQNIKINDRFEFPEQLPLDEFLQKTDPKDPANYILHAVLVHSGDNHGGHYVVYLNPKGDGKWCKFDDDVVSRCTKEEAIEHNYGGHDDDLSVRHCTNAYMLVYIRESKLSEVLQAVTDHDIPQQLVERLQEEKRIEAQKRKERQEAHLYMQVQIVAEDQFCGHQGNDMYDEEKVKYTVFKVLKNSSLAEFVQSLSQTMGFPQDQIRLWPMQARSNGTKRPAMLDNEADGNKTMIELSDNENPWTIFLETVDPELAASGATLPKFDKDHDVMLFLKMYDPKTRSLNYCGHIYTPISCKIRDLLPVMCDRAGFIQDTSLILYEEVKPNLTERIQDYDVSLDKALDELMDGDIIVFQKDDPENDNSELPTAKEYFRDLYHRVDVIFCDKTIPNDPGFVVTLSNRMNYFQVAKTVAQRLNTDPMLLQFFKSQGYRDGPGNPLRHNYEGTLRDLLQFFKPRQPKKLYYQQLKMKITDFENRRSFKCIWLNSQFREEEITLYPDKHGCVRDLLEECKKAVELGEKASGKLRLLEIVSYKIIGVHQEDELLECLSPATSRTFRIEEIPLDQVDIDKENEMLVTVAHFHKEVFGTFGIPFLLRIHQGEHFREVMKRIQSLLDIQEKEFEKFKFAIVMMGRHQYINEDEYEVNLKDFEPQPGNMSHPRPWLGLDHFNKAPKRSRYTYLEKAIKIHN

PLA foci per cell, co-staining of CHK1 and USP7 (mean +/- s.e.m.) (CHK1 and USP7; listed as AraC) | SMILES | colony formation, resistance of high CHK1 cells compared to low CHK1 cells (primary AML cells; 10 nM cytarabine alone, 7 days) | PLA foci per cell, co-staining of CHK1 and USP7 (mean +/- s.e.m.) (CHK1 and USP7) | cell viability (AML primary samples) | overall mouse survival [1] | cell death in combination with cytarabine (OCI-AML3 cells) | colony formation, effect on cytarabine sensitivity (primary AML cells; high CHK1 primary AML cells (n=6)) | colony formation, effect on cytarabine sensitivity (primary AML cells; low CHK1 primary AML cells (n=3)) | CHK1 protein level [2] | CHK1 protein signal that disappears (immunofluorescence) (CHK1 protein signal) | cell viability [3] | half-life of CHK1 protein ([4]; 50 μg/mL cycloheximide, after 6 hours of P22077 treatment) | CHEK1 mRNA expression ([4]; P22077 treatment, data not shown) | CHK1 ubiquitination [5] | CHK1 protein levels [6] | cell death in combination with cytarabine (HL-60 cells) | CHK1 protein levels ([7]; HEL cells (wild-type p53)) | p53 protein levels ([7]; HEL cells)
3.31+/−0.21 foci/cell | Nc1ccn([C@@H]2O[C@H](CO)[C@@H](O)[C@@H]2O)c(=O)n1 [cytarabine] | significantly more resistant to cytarabine | significant proximity between the two proteins |  |  |  |  |  |  |  |  |  |  |  |  |  |  | 
 | CC(=O)c1cc([N+](=O)[O-])c(Sc2ccc(F)cc2F)s1 [P22077, 1-[5-[(2,4-Difluorophenyl)thio]-4-nitro-2-thienyl]-ethanone] |  |  | significantly reduced cell viability | significantly improved overall mouse survival | synergistically enhances cell death induced by cytarabine | potentiated the effects of cytarabine | did not modify the sensitivity to cytarabine | reduced CHK1 protein level | approximately 50% | largely unaffected | significantly shortened the half-life of CHK1 protein | without affecting CHEK1 mRNA expression | more abundantly ubiquitinated | significant decrease of CHK1 protein levels | synergistically enhances cell death induced by cytarabine | similarly decreased CHK1 protein levels | without significant impact on p53 protein levels
